According to the NIST ThermoML archive (doi:10.1016/j.jct.2018.01.025):
Where “and” joins values, the source holds several entries; their conditions need not be identical. Equal values may be shown once.

Conditions: Liquid; for mass density: Vibrating tube method

CCCC[n+]1cccc(C)c1.O=S(=O)([N-]S(=O)(=O)C(F)(F)F)C(F)(F)F
Conditions | viscosity
278.15 K, 101.33 kPa, Concentric cylinders viscometry | 201 mPa·s
283.15 K, 101.33 kPa, Concentric cylinders viscometry | 146.3 mPa·s
288.13 K, 101.33 kPa, Vibrating wire viscometry | 107.09 mPa·s
288.15 K, 101.33 kPa, Concentric cylinders viscometry | 109.5 mPa·s
292.95 K, 101.33 kPa, Vibrating wire viscometry | 83.24 mPa·s
293.15 K, 101.33 kPa, Concentric cylinders viscometry | 84.1 mPa·s
296.3 K, 101.33 kPa, Vibrating wire viscometry | 71.15 mPa·s
298.15 K, 101.33 kPa, Concentric cylinders viscometry | 65.6 mPa·s
298.25 K, 101.33 kPa, Vibrating wire viscometry | 65 mPa·s and 64.91 mPa·s
300.55 K, 101.33 kPa, Vibrating wire viscometry | 58.21 mPa·s
302.98 K, 101.33 kPa, Vibrating wire viscometry | 52.92 mPa·s
303.15 K, 101.33 kPa, Concentric cylinders viscometry | 52.31 mPa·s
303.15 K, 10000 kPa, Falling or rolling sphere viscometry | 58.6 mPa·s
303.15 K, 15000 kPa, Falling or rolling sphere viscometry | 62.3 mPa·s
303.15 K, 25000 kPa, Falling or rolling sphere viscometry | 70.4 mPa·s
303.15 K, 50000 kPa, Falling or rolling sphere viscometry | 94.7 mPa·s
303.15 K, 75000 kPa, Falling or rolling sphere viscometry | 126.3 mPa·s
307.84 K, 101.33 kPa, Vibrating wire viscometry | 43.69 mPa·s
308.15 K, 101.33 kPa, Concentric cylinders viscometry | 42.36 mPa·s
310.19 K, 101.33 kPa, Vibrating wire viscometry | 40.27 mPa·s
313.15 K, 101.33 kPa, Concentric cylinders viscometry | 35.01 mPa·s
313.15 K, 10000 kPa, Falling or rolling sphere viscometry | 40.1 mPa·s
313.15 K, 15000 kPa, Falling or rolling sphere viscometry | 42.3 mPa·s
313.15 K, 25000 kPa, Falling or rolling sphere viscometry | 47.2 mPa·s
313.15 K, 50000 kPa, Falling or rolling sphere viscometry | 61.7 mPa·s
313.15 K, 75000 kPa, Falling or rolling sphere viscometry | 80.5 mPa·s
313.15 K, 100000 kPa, Falling or rolling sphere viscometry | 104.9 mPa·s
318.15 K, 101.33 kPa, Concentric cylinders viscometry | 29.01 mPa·s
323.15 K, 101.33 kPa, Concentric cylinders viscometry | 24.47 mPa·s
323.15 K, 10000 kPa, Falling or rolling sphere viscometry | 27.2 mPa·s
323.15 K, 15000 kPa, Falling or rolling sphere viscometry | 28.7 mPa·s
323.15 K, 25000 kPa, Falling or rolling sphere viscometry | 32 mPa·s
323.15 K, 50000 kPa, Falling or rolling sphere viscometry | 41.6 mPa·s
323.15 K, 75000 kPa, Falling or rolling sphere viscometry | 53.5 mPa·s
323.15 K, 100000 kPa, Falling or rolling sphere viscometry | 68.5 mPa·s
328.15 K, 101.33 kPa, Concentric cylinders viscometry | 20.87 mPa·s
333.15 K, 101.33 kPa, Concentric cylinders viscometry | 17.97 mPa·s
333.15 K, 10000 kPa, Falling or rolling sphere viscometry | 20 mPa·s
333.15 K, 15000 kPa, Falling or rolling sphere viscometry | 20.8 mPa·s
333.15 K, 25000 kPa, Falling or rolling sphere viscometry | 22.8 mPa·s
333.15 K, 50000 kPa, Falling or rolling sphere viscometry | 29.2 mPa·s
333.15 K, 75000 kPa, Falling or rolling sphere viscometry | 37.2 mPa·s
333.15 K, 100000 kPa, Falling or rolling sphere viscometry | 46.3 mPa·s
338.15 K, 101.33 kPa, Concentric cylinders viscometry | 15.61 mPa·s
343.15 K, 101.33 kPa, Concentric cylinders viscometry | 13.68 mPa·s
343.15 K, 10000 kPa, Falling or rolling sphere viscometry | 14.8 mPa·s
343.15 K, 15000 kPa, Falling or rolling sphere viscometry | 15.7 mPa·s
343.15 K, 25000 kPa, Falling or rolling sphere viscometry | 17.4 mPa·s
343.15 K, 50000 kPa, Falling or rolling sphere viscometry | 21.7 mPa·s
343.15 K, 75000 kPa, Falling or rolling sphere viscometry | 26.7 mPa·s
343.15 K, 100000 kPa, Falling or rolling sphere viscometry | 33.2 mPa·s
348.15 K, 101.33 kPa, Concentric cylinders viscometry | 12.07 mPa·s
353.15 K, 101.33 kPa, Concentric cylinders viscometry | 10.78 mPa·s
353.15 K, 10000 kPa, Falling or rolling sphere viscometry | 11.5 mPa·s
353.15 K, 15000 kPa, Falling or rolling sphere viscometry | 12.1 mPa·s
353.15 K, 25000 kPa, Falling or rolling sphere viscometry | 13.2 mPa·s
353.15 K, 50000 kPa, Falling or rolling sphere viscometry | 16.4 mPa·s
353.15 K, 75000 kPa, Falling or rolling sphere viscometry | 20.2 mPa·s
353.15 K, 100000 kPa, Falling or rolling sphere viscometry | 24.8 mPa·s
358.15 K, 101.33 kPa, Concentric cylinders viscometry | 9.59 mPa·s
363.15 K, 101.33 kPa, Concentric cylinders viscometry | 8.63 mPa·s
368.15 K, 101.33 kPa, Concentric cylinders viscometry | 7.8 mPa·s
373.15 K, 101.33 kPa, Concentric cylinders viscometry | 7.09 mPa·s

101.33 kPa
Conditions | mass density [kg/m3]
278.15 K | 1431.3
283.15 K | 1426.4
288.15 K | 1421.6
293.15 K | 1416.9
298.15 K | 1412.3
303.15 K | 1407.8
308.15 K | 1403.2
313.15 K | 1398.7
318.15 K | 1394.3
323.15 K | 1389.8
328.15 K | 1385.4
333.15 K | 1380.9
338.15 K | 1376.4
343.15 K | 1372
348.15 K | 1367.5
353.15 K | 1362.9
358.15 K | 1358.3
363.15 K | 1353.9
368.15 K | 1349.6
373.15 K | 1345.4

CCOS(=O)(=O)[O-].CCn1cc[n+](C)c1 [1-ethyl-3-methylimidazolium ethyl sulfate]
101.33 kPa
Conditions | viscosity
278.15 K, Concentric cylinders viscometry | 329 mPa·s
283.15 K, Concentric cylinders viscometry | 234.5 mPa·s
288.15 K, Concentric cylinders viscometry | 172.2 mPa·s
293.15 K, Concentric cylinders viscometry | 130.1 mPa·s
298.15 K, Concentric cylinders viscometry | 100 mPa·s
298.52 K, Vibrating wire viscometry | 97.32 mPa·s and 98.21 mPa·s
303.15 K, Concentric cylinders viscometry | 78.66 mPa·s
303.34 K, Vibrating wire viscometry | 76.57 mPa·s
303.38 K, Vibrating wire viscometry | 76.99 mPa·s
303.64 K, Vibrating wire viscometry | 76.57 mPa·s
308.15 K, Concentric cylinders viscometry | 62.99 mPa·s
308.21 K, Vibrating wire viscometry | 61.5 mPa·s
313.15 K, Concentric cylinders viscometry | 51.59 mPa·s
313.23 K, Vibrating wire viscometry | 51.09 mPa·s
313.24 K, Vibrating wire viscometry | 50.47 mPa·s
318.15 K, Concentric cylinders viscometry | 42.36 mPa·s
318.43 K, Vibrating wire viscometry | 41.55 mPa·s
322.6 K, Vibrating wire viscometry | 36.51 mPa·s
323.02 K, Vibrating wire viscometry | 35.9 mPa·s
323.15 K, Concentric cylinders viscometry | 35.43 mPa·s
328.15 K, Concentric cylinders viscometry | 29.98 mPa·s
333.15 K, Concentric cylinders viscometry | 25.64 mPa·s
338.15 K, Concentric cylinders viscometry | 22.13 mPa·s
343.15 K, Concentric cylinders viscometry | 19.27 mPa·s
348.15 K, Concentric cylinders viscometry | 16.91 mPa·s
353.15 K, Concentric cylinders viscometry | 15.03 mPa·s
358.15 K, Concentric cylinders viscometry | 13.3 mPa·s
363.15 K, Concentric cylinders viscometry | 11.9 mPa·s
368.15 K, Concentric cylinders viscometry | 10.71 mPa·s
373.15 K, Concentric cylinders viscometry | 9.69 mPa·s

101.33 kPa
Conditions | mass density [kg/m3]
278.15 K | 1251.2
283.15 K | 1247.3
288.15 K | 1243.7
293.15 K | 1240.1
298.15 K | 1236.7
303.15 K | 1233.3
308.15 K | 1229.9
313.15 K | 1226.5
318.15 K | 1223.2
323.15 K | 1219.9
328.15 K | 1216.6
333.15 K | 1213.4
338.15 K | 1210.2
343.15 K | 1206.9
348.15 K | 1203.6
353.15 K | 1200.1
358.15 K | 1196.6
363.15 K | 1193.4
368.15 K | 1190.5
373.15 K | 1187.4
